System: HCV 1b-377-neo replicon cells
Test: HCV replicon assay, HCV 1b-377-neo replicon cells (1b FRET)
Type: cell-based, Hepatitis C virus genotype 1b
Conditions: Hepatitis C virus, HCV 1b-377-neo replicon cells; HCV 1b genotype; read-out: EC50 range against HCV 1b (Table 2, Range)
Summary of the method: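 FRET-based replicon assay in HCV 1b-377-neo cells, including a comparison line carrying the NS5A Y2065H mutation that confers resistance to a reference compound.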

SMILES	EC50 [pM]
COC(=O)N[C@H](C(=O)N1[C@@H](C)CC[C@H]1c1ncc(-c2ccc(-c3ccc(-c4cnc([C@@H]5CC[C@H](C)N5C(=O)[C@@H](NC(=O)OC)C(C)C)[nH]4)cc3)cc2)[nH]1)C(C)C [Example M151, methyl ((1S)-1-(((2S,5S)-2-(4-(4′-(2-((2S,5S)-1-((2S)-2-((methoxycarbonyl)amino)-3-methylbutanoyl)-5-methyl-2-pyrrolidinyl)-1H-imidazol-4-yl)-4-biphenylyl)-1H-imidazol-2-yl)-5-methyl-1-pyrrolidinyl)carbonyl)-2-methylpropyl)carbamate]	1 to 999
COC(=O)N[C@@H](C(=O)N1[C@@H](C)CC[C@H]1c1nc(-c2ccc(-c3ccc(-c4c[nH]c([C@@H]5CC[C@H](C)N5C(=O)[C@H](NC(=O)OC)c5ccccc5)n4)cc3)cc2)c[nH]1)c1ccccc1 [Example M153, dimethyl (4,4′-biphenyldiylbis(1H-imidazole-4,2-diyl((2S,5S)-5-methyl-2,1-pyrrolidinediyl)((1R)-2-oxo-1-phenyl-2,1-ethanediyl)))biscarbamate]	1 to 999
CC[C@H](NC(=O)OC)C(=O)N1[C@@H](C)CC[C@H]1c1nc(-c2ccc(-c3ccc(-c4c[nH]c([C@@H]5CC[C@H](C)N5C(=O)[C@H](CC)NC(=O)OC)n4)cc3)cc2)c[nH]1 [Example M154, dimethyl (4,4′-biphenyldiylbis(1H-imidazole-4,2-diyl((2S,5S)-5-methyl-2,1-pyrrolidinediyl)((2S)-1-oxo-1,2-butanediyl)))biscarbamate]	1 to 999
COC(=O)NCC(=O)N1[C@@H](C)CC[C@H]1c1nc(-c2ccc(-c3ccc(-c4c[nH]c([C@@H]5CC[C@H](C)N5C(=O)CNC(=O)OC)n4)cc3)cc2)c[nH]1 [Example M155, methyl (2-((2S,5S)-2-(4-(4′-(2-((2S,5S)-1-(((methoxycarbonyl)amino)acetyl)-5-methyl-2-pyrrolidinyl)-1H-imidazol-4-yl)-4-biphenylyl)-1H-imidazol-2-yl)-5-methyl-1-pyrrolidinyl)-2-oxoethyl)carbamate]	1000 to 99000
COC(=O)NC(C)(C)C(=O)N1[C@@H](C)CC[C@H]1c1nc(-c2ccc(-c3ccc(-c4c[nH]c([C@@H]5CC[C@H](C)N5C(=O)C(C)(C)NC(=O)OC)n4)cc3)cc2)c[nH]1 [Example M156, methyl (2-((2S,5S)-2-(4-(4′-(2-((2S,5S)-1-(2-((methoxycarbonyl)amino)-2-methylpropanoyl)-5-methyl-2-pyrrolidinyl)-1H-imidazol-4-yl)-4-biphenylyl)-1H-imidazol-2-yl)-5-methyl-1-pyrrolidinyl)-1,1-dimethyl-2-oxoethyl)carbamate]	1000 to 99000
COC(=O)N[C@@H](C)C(=O)N1[C@@H](C)CC[C@H]1c1nc(-c2ccc(-c3ccc(-c4c[nH]c([C@@H]5CC[C@H](C)N5C(=O)[C@H](C)NC(=O)OC)n4)cc3)cc2)c[nH]1 [Example M157, methyl ((1S)-2-((2S,5S)-2-(4-(4′-(2-((2S,5S)-1-(N-(methoxycarbonyl)-L-alanyl)-5-methyl-2-pyrrolidinyl)-1H-imidazol-4-yl)-4-biphenylyl)-1H-imidazol-2-yl)-5-methyl-1-pyrrolidinyl)-1-methyl-2-oxoethyl)carbamate]	1 to 999
CC(C)CC(=O)N1[C@@H](C)CC[C@H]1c1nc(-c2ccc(-c3ccc(-c4c[nH]c([C@@H]5CC[C@H](C)N5C(=O)CC(C)C)n4)cc3)cc2)c[nH]1 [Example M158, 4,4′-(4,4′-biphenyldiyl)bis(2-((2S,5S)-5-methyl-1-(3-methylbutanoyl)-2-pyrrolidinyl)-1H-imidazole)]	1000 to 99000
C[C@H]1CC[C@@H](c2nc(-c3ccc(-c4ccc(-c5c[nH]c([C@@H]6CC[C@H](C)N6C(=O)Cc6ccccc6)n5)cc4)cc3)c[nH]2)N1C(=O)Cc1ccccc1 [Example M159, 4,4′-(4,4′-biphenyldiyl)bis(2-((2S,5S)-5-methyl-1-(phenylacetyl)-2-pyrrolidinyl)-1H-imidazole)]	1 to 999

Source: US8574563B2 (Bristol-Myers Squibb Company, priority 2006, dated 2013)
